This passage reports IC50 and melting point results from article PMC3743159 (Chemmedchem, 2013).

The target of series [1] is T1, STS (Homo sapiens, UniProt P08842).
T1 sequence (P08842 22-583): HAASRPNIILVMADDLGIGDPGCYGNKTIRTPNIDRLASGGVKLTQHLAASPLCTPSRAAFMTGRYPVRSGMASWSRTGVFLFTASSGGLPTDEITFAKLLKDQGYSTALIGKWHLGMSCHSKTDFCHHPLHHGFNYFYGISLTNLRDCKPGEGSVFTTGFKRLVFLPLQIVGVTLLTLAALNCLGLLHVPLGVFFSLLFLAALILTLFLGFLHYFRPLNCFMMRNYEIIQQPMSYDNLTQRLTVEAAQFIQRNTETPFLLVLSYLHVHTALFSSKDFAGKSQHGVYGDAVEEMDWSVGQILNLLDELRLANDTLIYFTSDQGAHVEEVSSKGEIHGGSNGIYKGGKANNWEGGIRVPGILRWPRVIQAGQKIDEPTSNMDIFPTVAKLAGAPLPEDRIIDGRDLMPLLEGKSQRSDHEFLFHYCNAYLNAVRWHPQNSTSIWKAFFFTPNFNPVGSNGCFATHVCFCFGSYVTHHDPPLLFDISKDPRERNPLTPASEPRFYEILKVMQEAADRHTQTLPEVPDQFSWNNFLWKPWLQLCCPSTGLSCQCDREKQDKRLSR
Description: In vitro inhibition of STS. The class given is cell-based. The conditions noted are these: STS IC50, JEG-3 cell preparation; sulfamates.

Series [2] has as its system STS. The conditions noted are these: read-out: STS IC50; placental microsome preparation; cited from earlier work.

On STS [1], `N#Cc1ccc(N(Cc2ccc(OS(N)(=O)=O)cc2Cl)n2cnnc2)cc1` [Compound 17, 3-Chloro-4-{[(4-cyanophenyl)(4H-1,2,4-triazol-4-yl)amino]methyl}phenyl sulfamate] registered an IC50 of 0.04 ± 0.005 µM.
`N#Cc1ccc(N(Cc2c(F)cc(OS(N)(=O)=O)cc2F)n2cnnc2)cc1` [Compound 12, 4-{[(4-Cyanophenyl)(4H-1,2,4-triazol-4-yl)amino]methyl}-3,5-difluorophenyl sulfamate] came in with an IC50 against STS [1] of 0.039 ± 0.001 µM.
With `Oc1ccc(CN(c2ccc3c(c2)OC(F)(F)O3)n2cnnc2)cc1` [Compound 22 e, 4-{[(2,2-Difluorobenzo[1,3]dioxol-5-yl)-[1,2,4]triazol-4-ylamino]methyl}phenol], the melting point lay within 182 to 185 °C.
`N#Cc1ccc(N(Cc2ccc(OS(N)(=O)=O)cc2F)n2cnnc2)cc1` [Compound 11, 4-{[(4-Cyanophenyl)(4H-1,2,4-triazol-4-yl)amino]methyl}-3-fluorophenyl sulfamate] returned an IC50 at STS [1] of 0.021 ± 0.0035 µM.
On the same count and under the same terms, next, `NS(=O)(=O)Oc1ccc(CN(c2ccc3c(c2)OC(F)(F)O3)n2cnnc2)cc1` [Compound 22, 4-{[(2,2-Difluorobenzo[d][1,3]dioxol-5-yl)(4H-1,2,4-triazol-4-yl)amino]methyl}phenyl sulfamate]: 0.052 ± 0.0066 µM.
Turning to `C[C@]12CC[C@@H]3c4cc(C(F)F)c(OS(N)(=O)=O)cc4CC[C@H]3[C@@H]1CCC2=O` [2-difluoromethyloestrone 3-O-sulfamate], in the series on STS [2], the IC50 was 0.0001 µM.
On STS [1], `NS(=O)(=O)Oc1ccc(CN(c2cc(F)cc(F)c2)n2cnnc2)cc1` [Compound 21, 4-{[(3,5-Difluorophenyl)(4H-1,2,4-triazol-4-yl)amino]methyl}phenyl sulfamate] returned an IC50 of 0.045 ± 0.005 µM.
In turn, `N#Cc1ccc(N(Cc2ccc(OS(N)(=O)=O)c(F)c2F)n2cnnc2)cc1` [Compound 13, 4-{[(4-Cyanophenyl)(4H-1,2,4-triazol-4-yl)amino]methyl}-2,3-difluorophenyl sulfamate] had an IC50 at STS [1] of 0.048 ± 0.002 µM.
Compound `N#Cc1ccc(N(Cc2c(Cl)cc(OS(N)(=O)=O)cc2Cl)n2cnnc2)cc1` [Compound 18, 3,5-Dichloro-4-{[(4-cyanophenyl)(4H-1,2,4-triazol-4-yl)amino]methyl}phenyl sulfamate] showed an IC50 against STS [1] of 0.044 ± 0.006 µM.
Still for that read-out and setting: under `N#Cc1ccc(N(Cc2ccc(OS(N)(=O)=O)c(C(F)F)c2)n2cnnc2)cc1` [Compound 15, 4-{[(4-Cyanophenyl)(4H-1,2,4-triazol-4-yl)amino]methyl}-2-(difluoromethyl)phenyl sulfamate] stands 0.06 ± 0.0024 µM.
On STS [1], `N#Cc1ccc(N(Cc2ccc(OS(N)(=O)=O)cc2Br)n2cnnc2)cc1` [Compound 19, 3-Bromo-4-{[(4-cyanophenyl)(4H-1,2,4-triazol-4-yl)amino]methyl}phenyl sulfamate] displayed an IC50 of 0.029 ± 0.002 µM.
On the same count and under the same terms, under `NS(=O)(=O)Oc1ccc(CN(c2ccccc2)n2cnnc2)cc1` [Compound 20, 4-{[Phenyl(4H-1,2,4-triazol-4-yl)amino]methyl}phenyl sulfamate] stands 1.56 ± 0.116 µM.
